Test results from patent publication US11254663B2 (BRISTOL-MYERS SQUIBB COMPANY, priority 2019, dated 2022).

molecular target: FXR (Homo sapiens (Human), UniProt Q96RI1); experiment: FXR EC50 (FXR agonist potency reported with each Example); assay type: cell-based
Sequence (Q96RI1 262-486): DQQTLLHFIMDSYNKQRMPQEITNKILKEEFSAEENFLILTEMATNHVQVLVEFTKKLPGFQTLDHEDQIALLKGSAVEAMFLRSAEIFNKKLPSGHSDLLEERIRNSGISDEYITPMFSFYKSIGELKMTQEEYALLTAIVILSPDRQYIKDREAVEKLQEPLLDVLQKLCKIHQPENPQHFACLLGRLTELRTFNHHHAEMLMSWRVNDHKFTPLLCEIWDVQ

Row | SMILES | EC50 [nM]
1 | CC1(c2nc(-c3cccc(N(CC45CCC(c6noc(C7(C)COC7)n6)(CC4)CC5)C(=O)C45CC(F)(C4)C5)c3)no2)CC1 [Example 180, 3-fluoro-N-(3-(5-(1-methylcyclopropyl)-1,2,4-oxadiazol-3-yl)phenyl)-N-((4-(5-(3-methyloxetan-3-yl)-1,2,4-oxadiazol-3-yl)bicyclo[2.2.2]octan-1-yl)methyl) bicyclo[1.1.1]pentane-1-carboxamide] | 83
2 | O=C([C@H]1C[C@](O)(C(F)(F)F)C1)N(CC12CCC(c3nc(C4CC4)no3)(CC1)CC2)c1cccc(-c2nc(C(F)F)co2)c1 [Example 42, (1s, 3s)-N-((4-(3-cyclopropyl-1,2,4-oxadiazol-5-yl)bicyclo[2.2.2]octan-1-yl)methyl)-N-(3-(4-(difluoromethyl)oxazol-2-yl)phenyl)-3-hydroxy-3-(trifluoromethyl)cyclobutane-1-carboxamide] | 613
3 | CC(C)(C)c1nc(-c2cccc(N(CC34CCC(c5cnc(C(F)(F)F)nc5)(CC3)OC4)C(=O)C34CC(F)(C3)C4)c2)no1 [Example 181, N-(3-(5-(tert-butyl)-1,2,4-oxadiazol-3-yl)phenyl)-3-fluoro-N-((1-(2-(trifluoromethyl)pyrimidin-5-yl)-2-oxabicyclo[2.2.2]octan-4-yl)methyl)bicyclo[1.1.1]pentane-1-carboxamide] | 828
4 | COc1ccc(NC(=O)N(CC23CCC(c4nc(C5CC5)no4)(CC2)CC3)c2cccc(-c3nc(C4CC4)no3)c2)cc1 [Example 96, 1-((4-(3-cyclopropyl-1,2,4-oxadiazol-5-yl)bicyclo[2.2.2]octan-1-yl)methyl)-1-(3-(3-cyclopropyl-1,2,4-oxadiazol-5-yl)phenyl)-3-(4-methoxyphenyl)urea] | 647
5 | CC(C)(C)c1noc(C23CCC(CN(C(=O)C45CC(F)(C4)C5)c4cccc(-c5cnn(S(=O)(=O)C6CC6)c5)c4)(CC2)OC3)n1 [Example 208, N-((4-(3-(tert-butyl)-1,2,4-oxadiazol-5-yl)-2-oxabicyclo[2.2.2]octan-1-yl)methyl)-N-(3-(1-(cyclopropylsulfonyl)-1H-pyrazol-4-yl)phenyl)-3-fluorobicyclo[1.1.1]pentane-1-carboxamide] | 618
6 | Cn1nc(-c2cccc(N(CC34CCC(c5nc(C6CC6)no5)(CC3)CC4)C(=O)C34CC(F)(C3)C4)c2)cc1C1CC1 [Example 75, N-((4-(3-cyclopropyl-1,2,4-oxadiazol-5-yl)bicyclo[2.2.2]octan-1-yl)methyl)-N-(3-(5-cyclopropyl-1-methyl-1H-pyrazol-3-yl)phenyl)-3-fluorobicyclo[1.1.1]pentane-1-carboxamide] | 247
7 | O=C(N(CC12CCC(c3noc(C4CC4(F)F)n3)(CC1)CC2)c1cccc(-c2nc(C3CC3)no2)c1)C12CC(F)(C1)C2 (stereo not drawn) [Example 123, N-(3-(3-cyclopropyl-1,2,4-oxadiazol-5-yl)phenyl)-N-((4-(5-(2,2-difluorocyclopropyl)-1,2,4-oxadiazol-3-yl)bicyclo[2.2.2]octan-1-yl)methyl)-3-fluorobicyclo[1.1.1]pentane-1-carboxamide] | 73
8 | Cn1cc(-c2cccc(N(CC34CCC(c5nc(C6CC6)no5)(CC3)CC4)C(=O)C34CC(F)(C3)C4)c2)nc1C1CC1 [Example 130, N-((4-(3-cyclopropyl-1,2,4-oxadiazol-5-yl)bicyclo[2.2.2]octan-1-yl)methyl)-N-(3-(2-cyclopropyl-1-methyl-1H-imidazol-4-yl)phenyl)-3-fluorobicyclo[1.1.1]pentane-1-carboxamide] | 585
9 | O=C(C1CC(O)(C(F)(F)F)C1)N(CC12CCC(c3nc(C4CC4)no3)(CC1)CC2)c1cccc(-c2cnc(C3CC3)o2)c1 [Example 21, (1S,3S)—N-((4-(3-cyclopropyl-1,2,4-oxadiazol-5-yl)bicyclo[2.2.2]octan-1-yl)methyl)-N-(3-(2-cyclopropyloxazol-5-yl)phenyl)-3-hydroxy-3-(trifluoromethyl)cyclobutane-1-carboxamide] | 80
